Source: ChEMBL document CHEMBL2176906, “Diterpenoids isolated from Sideritis species protect astrocytes against oxidative stress via Nrf2” (J Nat Prod, 2012)
Calls of active or inactive are those of the source. No cut-off for these calls is given here.

Assays:
[1] = Cytotoxicity against human U373MG cells at > 50 uM after 24 hrs by MTT assay; type: cell-based; details: u-373mg atcc
[2] = target: T1, Nuclear factor erythroid 2-related factor 2 (Homo sapiens) (UniProt Q16236); test: Induction of Nrf2-mediated HO-1 protein expression in H2O2-stimulated human U373MG cells preincubated at 10 uM for 24 hrs before H2O2 challenge by Western blot method; type: cell-based; details: U-373MG ATCC
T1 sequence (whole entry): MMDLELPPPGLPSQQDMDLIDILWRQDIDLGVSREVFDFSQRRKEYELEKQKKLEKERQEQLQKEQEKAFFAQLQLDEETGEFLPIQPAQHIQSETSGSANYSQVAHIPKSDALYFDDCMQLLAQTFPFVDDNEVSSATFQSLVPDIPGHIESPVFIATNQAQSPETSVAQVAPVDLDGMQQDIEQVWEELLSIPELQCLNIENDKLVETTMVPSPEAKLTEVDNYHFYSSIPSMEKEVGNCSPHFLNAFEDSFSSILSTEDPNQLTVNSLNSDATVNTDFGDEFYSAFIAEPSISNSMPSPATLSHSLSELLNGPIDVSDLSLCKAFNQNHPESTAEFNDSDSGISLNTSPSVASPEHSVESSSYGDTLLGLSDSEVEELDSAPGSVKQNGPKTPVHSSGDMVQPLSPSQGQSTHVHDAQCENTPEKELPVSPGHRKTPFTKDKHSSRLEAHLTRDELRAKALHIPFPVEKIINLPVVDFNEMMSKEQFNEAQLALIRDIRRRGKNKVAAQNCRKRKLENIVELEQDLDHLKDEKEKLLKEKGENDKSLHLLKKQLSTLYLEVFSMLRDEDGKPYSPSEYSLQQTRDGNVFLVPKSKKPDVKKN

[3] = target: T1, Nuclear factor erythroid 2-related factor 2 (Homo sapiens); test: Induction of Nrf2-mediated HO-1 protein expression in H2O2-stimulated human U373MG cells preincubated at 5 uM for 24 hrs before H2O2 challenge by Western blot method; type: cell-based; details: U-373MG ATCC
[4] = target: T1, Nuclear factor erythroid 2-related factor 2 (Homo sapiens); test: Induction of Nrf2-mediated glutathione reductase protein expression in H2O2-stimulated human U373MG cells preincubated at 10 uM for 24 hrs before H2O2 challenge by Western blot method; type: cell-based; details: U-373MG ATCC
[5] = target: T1, Nuclear factor erythroid 2-related factor 2 (Homo sapiens); test: Induction of Nrf2-mediated glutathione reductase protein expression in H2O2-stimulated human U373MG cells preincubated at 5 uM for 24 hrs before H2O2 challenge by Western blot method; type: cell-based; details: U-373MG ATCC
U373 MG [6] = test: Induction of Nrf2 nuclear protein expression in H2O2-stimulated human U373MG cells preincubated at 5 uM for 24 hrs before H2O2 challenge by Western blot method; type: functional, cell-based; details: U-373MG ATCC
U373 MG [7] = test: Induction of HO-1 activity in human U373MG cells assessed as bilirubin production per mg protein preincubated at 5 uM for 24 hrs before H2O2 challenge by fluorimetric method (reference value: 19.6 +/-3.5 pmol/hr/mg protein); type: functional, U-373MG ATCC
U373 MG [8] = test: Induction of total GPx activity in human U373MG cells assessed as […] per mg protein preincubated at 5 uM for 24 hrs before H2O2 challenge by fluorimetric method (reference value: 58.5 +/- 5.1 nmol/min/mg protein); type: functional, U-373MG ATCC
U373 MG [9] = test: Induction of SOD activity in human U373MG cells assessed per mg protein preincubated at 10 uM for 24 hrs before H2O2 challenge by fluorimetric method (reference value: 14.2 +/- 3 UI/mg protein); type: functional, U-373MG ATCC
U373 MG [10] = test: Induction of CAT activity in human U373MG cells assessed per mg protein preincubated at 10 uM for 24 hrs before H2O2 challenge by fluorimetric method (reference value: 18.9 +/- 0.4 UI/mg protein); type: functional, U-373MG ATCC
U373 MG [11] = test: Inhibition of AAPH-induced oxidative stress in human U373MG cells assessed as peroxy radical scavenging activity at 5 uM by ORAC assay; type: functional, cell-based; details: U-373MG ATCC
U373 MG [12] = test: Inhibition of H2O2-induced lipid peroxidation in human U373MG cells assessed as reduction in MDA levels per mg protein at 10 uM by HPLC analysis (reference value: 0.95 +/- 0.03 nmol/mg protein); type: functional, U-373MG ATCC
U373 MG [13] = test: Inhibition of H2O2-induced lipid peroxidation in human U373MG cells assessed as reduction in MDA levels per mg protein at 5 uM by HPLC analysis (reference value: 0.95 +/- 0.03 nmol/mg protein); type: functional, U-373MG ATCC
U-373MG ATCC [14] = test: Antioxidant activity in human U373MG cells assessed as reduction in H2O2-induced ROS production preincubated at 10 uM for 24 hrs before H2O2 challenge by DCFH-DA assay; type: functional, cell-based
U-373MG ATCC [15] = test: Antioxidant activity in human U373MG cells assessed as reduction in H2O2-induced ROS production preincubated at 5 uM for 24 hrs before H2O2 challenge by DCFH-DA assay; type: functional, cell-based
U-373MG ATCC [16] = test: Antioxidant activity in human U373MG cells assessed as reduction in H2O2-induced morphological changes preincubated at 10 uM for 24 hrs before H2O2 challenge by phase-contrast microscopy; type: functional, cell-based
U-373MG ATCC [17] = test: Antioxidant activity in human U373MG cells assessed as reduction in H2O2-induced cytotoxicity preincubated for 24 hrs before H2O2 challenge by LDH assay; type: functional, cell-based
U-373MG ATCC [18] = test: Antioxidant activity in human U373MG cells assessed as reduction in H2O2-induced cytotoxicity preincubated for 24 hrs before H2O2 challenge by MTT assay; type: functional, cell-based
[19] = Cytotoxicity against human U373MG cells at 1 to 100 uM after 24 hrs by LDH assay; type: cell-based; details: u-373mg atcc
[20] = Cytotoxicity against human U373MG cells at 1 to 100 uM after 24 hrs by MTT assay; type: cell-based; details: u-373mg atcc
[21] = Antioxidant activity in human U373MG cells assessed as reduction in H2O2-induced ROS production preincubated at 5 to 10 uM for 24 hrs before H2O2 challenge by DCFH-DA assay relative to untreated control; type: functional, U-373MG ATCC
U-373MG ATCC [22] = test: Antioxidant activity in human U373MG cells assessed as reduction in H2O2-induced cytotoxicity preincubated at 5 uM for 24 hrs before H2O2 challenge by MTT assay; type: functional, cell-based
[23] = Cytotoxicity against human U373MG cells at > 10 uM after 24 hrs by MTT assay; type: cell-based; details: u-373mg atcc
U-373MG ATCC [24] = test: Antioxidant activity in human U373MG cells assessed as reduction in H2O2-induced cytotoxicity preincubated at 10 uM for 24 hrs before H2O2 challenge by LDH assay; type: functional, cell-based
U-373MG ATCC [25] = test: Antioxidant activity in human U373MG cells assessed as reduction in H2O2-induced cytotoxicity preincubated at 5 uM for 24 hrs before H2O2 challenge by LDH assay; type: functional, cell-based
U-373MG ATCC [26] = test: Antioxidant activity in human U373MG cells assessed as reduction in H2O2-induced cytotoxicity preincubated at 10 uM for 24 hrs before H2O2 challenge by MTT assay; type: functional, cell-based

SMILES	Activity [2]	Activity [3]	Activity [4]	Activity [5]	Activity (U373 MG [6])	Activity (U373 MG [7]) [pmol/h]	Activity (U373 MG [8]) [nmol/min]	Activity (U373 MG [9]) [IU]	Activity (U373 MG [10]) [IU]	Activity (U373 MG [11])	Activity (U373 MG [12]) [nmol]	Activity (U373 MG [13]) [nmol]	Activity (U-373MG ATCC [16])	Activity (U-373MG ATCC [17])	Activity (U-373MG ATCC [18])	also measured
CC1(C)CCC[C@H]2C1=CC[C@H]1C[C@@](C)([C@@H](O)CO)C[C@@H](O)[C@@]12C [LAGASCATRIOL]	Active	Active	Active	Active	Active	28.6	76.9	23.9	23.9	inactive	0.57	0.6	Active	Dose-dependent effect	Dose-dependent effect	Activity [1]: Toxic; Activity (U-373MG ATCC [14]): Active; Activity (U-373MG ATCC [15]): Active
C=CC(=C)CC[C@H]1[C@]2(C)CCC[C@](C)(CO)[C@H]2[C@H](O)C[C@]1(C)O [ANDALUSOL]	Active	Active	Active	Active	Active	30.6	89.1	26	23.7	inactive	0.51	0.62	Active	Dose-dependent effect	Dose-dependent effect	Activity [19]: Non-toxic; Activity [20]: Non-toxic; Ratio [21]: 1.4
CC1(C)CCC[C@]2(C)[C@@H]1C[C@H](O)[C@@]13C=C[C@@](CO)(C1)[C@H](O)C[C@@H]23 [CONCHITRIOL]	–	–	–	–	inactive	15.9	59.5	18.8	17.4	inactive	0.87	0.91	Active	–	–	Activity (U-373MG ATCC [22]): Active; Activity [23]: Toxic; Activity (U-373MG ATCC [24]): Active; Activity (U-373MG ATCC [25]): Active; Activity (U-373MG ATCC [26]): Active
